Laboratory results as given in patent US12637452B2, “Crystalline forms of a substituted imidazopyridine compound and use thereof as P2X3 modulator” (GlaxoSmithKline Intellectual Property (No. 3) Limited, priority 2018, dated 2026).
≈ marks a conversion by molar mass, not a printed value. Blank lines part the entries; values can stand above or below the compound they belong to.

What was measured:
Format in all cases: physicochemical
[1] = Approximate solubility of starting material in 28 solvents at RT; details: 25 °C, thermodynamic from solid, starting material Form A0
Method: Approximate solubility of starting material (Compound 1, Form A0) was determined in 28 solvents at RT (25±3° C.). ˜2 mg of the starting material was added into each 3-mL glass vial. Solvents were then added stepwise (50/50/200/700 μL per step) into the vials until the solids were dissolved visually or a total volume of 1 mL was reached. Solubility results summarized in Table 2 were used to guide the solvent selection in screening design.

[2] = Dynamic vapor sorption (DVS) test, water uptake and form stability as a function of relative humidity
Method: DVS test was performed using an SMS (Surface Measurement Systems) DVS Intrinsic instrument. The relative humidity were calibrated against deliquescence point of LiCl, Mg(NO3)2 and KCl. The following instrument parameters were used at 25° C. and 40° C.:
DVS test was performed for Type A* family to investigate its form stability as a function of relative humidity. The DVS test was first conducted in a couple of cycles with different ends (30% and 95% RH) at 25° C. The samples were equilibrated at each RH point until wt % change was lower than 0.002% or the total time reached 3 hrs.
The crystal forms after DVS test were detected by XRPD. For the cycle (ambient RH-95% RH-0% RH-30% RH), the crystal form after DVS test was determined to be Type A (FIG. 5), corresponding to the ambient humidity (61.5% RH) when performing XRPD analysis. While for the cycle (ambient RH-95% RH-0% RH-95% RH), Type A1 was observed after DVS test (FIG. 7), corresponding to the ambient humidity (66.3% RH) when performing XRPD analysis.
DVS test was also conducted in the cycle (ambient RH-95% RH-0% RH-95% RH) at 40° C.

[3] = Theoretical maxima water uptake of a monohydrate from the single crystal structure; details: only lattice waters considered
From the text: A single crystal structure of Compound 1 Type A* family (form Type A0) was collected using crystals grown in ACN/H2O (1:3, v/v). Data were collected at 123 K using a Bruker D8 VENTURE diffractometer (Mo/Kα λ=0.71073 Å) with the following instrument parameters:
From the single crystal structure, there are four possible hydration sites in the unit cell. If each of the hydration sites is occupied by one water molecule, a monohydrate would be expected, which should correspond to the theoretical maxima water incorporation in the crystal lattice of Type A* family crystals. For a monohydrate, if only lattice waters are considered, the theoretical maxima water uptake is 3.9%, which is very close to the experimental DVS results (˜4.1-4.2% at 100% RH at 25° C.). In addition, there may be less than one water molecule on each hydration site because of the disorder, and a stoichiometry of less than 1:1 for water:API may be expected in an actual Type A* family crystal which is consistent with the almost linear increase/decrease of water content as a function of humidity in the DVS test.

solubility ([1]; organic solvent or mixture, solvent 1,2-Dichloroethane, RT (25±3° C.)): > 38000 µg/mL
solubility ([1]; organic solvent or mixture, solvent 1,4-Dioxane, RT (25±3° C.)): 2400 to 8000 µg/mL (≈ 5.23 to 17.4 mM)
solubility ([1]; organic solvent or mixture, solvent 1-Propanol, RT (25±3° C.)): > 38000 µg/mL
solubility ([1]; organic solvent or mixture, solvent 2-MeTHF, RT (25±3° C.)): 1800 to 6000 µg/mL (≈ 3.93 to 13.1 mM)
solubility ([1]; organic solvent or mixture, solvent ACN, RT (25±3° C.)): 20000 to 40000 µg/mL (≈ 43.6 to 87.2 mM)
solubility ([1]; organic solvent or mixture, solvent Acetone, RT (25±3° C.)): 19000 to 38000 µg/mL (≈ 41.4 to 82.9 mM)
solubility ([1]; organic solvent or mixture, solvent Anisole, RT (25±3° C.)): 2000 to 6700 µg/mL (≈ 4.36 to 14.6 mM)
solubility ([1]; organic solvent or mixture, solvent Butyl acetate, RT (25±3° C.)): < 2400 µg/mL
solubility ([1]; organic solvent or mixture, solvent CHCl3, RT (25±3° C.)): > 40000 µg/mL
solubility ([1]; organic solvent or mixture, solvent DCM, RT (25±3° C.)): > 40000 µg/mL
solubility ([1]; organic solvent or mixture, solvent DMF, RT (25±3° C.)): > 38000 µg/mL
solubility ([1]; organic solvent or mixture, solvent DMSO, RT (25±3° C.)): > 48000 µg/mL
solubility ([1]; organic solvent or mixture, solvent Diethyleneglycol, RT (25±3° C.)): 2400 to 8000 µg/mL (≈ 5.23 to 17.4 mM)
solubility ([1]; organic solvent or mixture, solvent Dimethoxyethane, RT (25±3° C.)): 6700 to 20000 µg/mL (≈ 14.6 to 43.6 mM)
solubility ([1]; organic solvent or mixture, solvent EtOAc, RT (25±3° C.)): < 2000 µg/mL
solubility ([1]; organic solvent or mixture, solvent EtOH, RT (25±3° C.)): > 46000 µg/mL
solubility ([1]; organic solvent or mixture, solvent IPA, RT (25±3° C.)): 20000 to 40000 µg/mL (≈ 43.6 to 87.2 mM)
solubility ([1]; organic solvent or mixture, solvent IPAc, RT (25±3° C.)): < 1900 µg/mL
solubility ([1]; organic solvent or mixture, solvent MEK, RT (25±3° C.)): 7700 to 23000 µg/mL (≈ 16.8 to 50.2 mM)
solubility ([1]; organic solvent or mixture, solvent MIBK, RT (25±3° C.)): < 2200 µg/mL
solubility ([1]; organic solvent or mixture, solvent MTBE, RT (25±3° C.)): < 2200 µg/mL
solubility ([1]; organic solvent or mixture, solvent MeOH, RT (25±3° C.)): > 44000 µg/mL
solubility ([1]; organic solvent or mixture, solvent THF, RT (25±3° C.)): > 46000 µg/mL
solubility ([1]; organic solvent or mixture, solvent Toluene, RT (25±3° C.)): < 2000 µg/mL
solubility ([1]; organic solvent or mixture, solvent n-Butanol, RT (25±3° C.)): > 42000 µg/mL
solubility ([1]; organic solvent or mixture, solvent n-Heptane, RT (25±3° C.)): < 1900 µg/mL
solubility ([1]; organic solvent or mixture, solvent n-Hexane, RT (25±3° C.)): < 2200 µg/mL
solubility ([1]; water, solvent H2O, RT (25±3° C.)): < 2400 µg/mL
Compound: CNC(=O)c1cc(F)c(-c2nc3cc(C)ccn3c2C[C@H]2CN(C(=O)OC)CCO2)c(F)c1 [Compound 1, methyl (S)-2-((2-(2,6-difluoro-4-(methylcarbamoyl)phenyl)-7-methylimidazo[1,2-a]pyridin-3-yl)methyl)morpholine-4-carboxylate]

crystal form after DVS test (XRPD) ([2]; 25° C., cycle ambient RH-95% RH-0% RH-30% RH, ambient humidity 61.5% RH at XRPD analysis): Type A
crystal form after DVS test (XRPD) ([2]; 25° C., cycle ambient RH-95% RH-0% RH-95% RH, ambient humidity 66.3% RH at XRPD analysis): Type A1
crystal form after DVS test (XRPD) ([2]; 40° C., cycle ambient RH-95% RH-0% RH-95% RH, ambient humidity 69.5% RH at XRPD test): Type A1
water uptake, experimental DVS results ([2]; at 100% RH at 25° C.): 4.1-4.2%
theoretical maxima water uptake [3]: 3.9%
Compound: CNC(=O)c1cc(F)c(-c2nc3cc(C)ccn3c2C[C@H]2CN(C(=O)OC)CCO2)c(F)c1 [Type A* family, methyl (S)-2-((2-(2,6-difluoro-4-(methylcarbamoyl)phenyl)-7-methylimidazo[1,2-a]pyridin-3-yl)methyl)morpholine-4-carboxylate]
